In PubChem BioAssay AID296 (DTP/NCI, 2004):
“And” between values parts separate entries of the source, which are not always exact repeats. Identical values can stand only once. Results filed as inconclusive are left out. *1 amine or outer side, *2 acyl side, *3 side chain or, on linkers, in order; H or OH if unused. Where a SMILES comes first, the peptide text is derived from it. Bridges are numbered along the chain shown (N, C = ends). Roman numbers before positions name the chains, in order. [ ]: non-standard residue; d: D form. Actinocin(9to1) = Cc1c2oc3c(C)ccc(C(=O)[*:1])c3nc-2c(C(=O)[*:2])c(N)c1=O; aThr = C[C@H](O)[C@H](N)C(=O)O; NMeV = CN[C@H](C(=O)O)C(C)C; Sar = CNCC(=O)O

Tested on: MX-1 breast xenograft, nude mice, tumor weight T/C
Test: NCI In Vivo Anticancer Drug Screen. Data for tumor model Human Mammary Carcinoma MX-1 Xenograft (intrarenal inoculation) in NU/NU Swiss (nude) mice
Conditions: endpoint: mean tumor weight change, higher = larger tumour
Procedure, shortened: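 Read-out: treated (T) over vehicle control (C) ratio of survival or tumor size. Dosing in animals carrying the transplanted tumor.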

[1] = dose: 300.0 mg/kg/injection, schedule: Q04DX003 (sc), vehicle: saline with Tween-80
[2] = dose: 600.0 mg/kg/injection, schedule: Q04DX003 (sc), vehicle: saline with Tween-80
[3] = dose: 1200.0 mg/kg/injection, schedule: Q04DX003 (sc), vehicle: saline with Tween-80
[4] = dose: 2400.0 mg/kg/injection, schedule: Q04DX003 (sc), vehicle: saline with Tween-80
[5] = dose: 300.0 mg/kg/injection, schedule: Q04DX003 (sc), vehicle: Klucel (hydroxypropylcellulose) (HPC)
[6] = dose: 600.0 mg/kg/injection, schedule: Q04DX003 (sc), vehicle: Klucel (hydroxypropylcellulose) (HPC)
[7] = dose: 1200.0 mg/kg/injection, schedule: Q04DX003 (sc), vehicle: Klucel (hydroxypropylcellulose) (HPC)
[8] = dose: 12.5 mg/kg/injection, schedule: Q04DX003 (sc), vehicle: saline
[9] = dose: 25.0 mg/kg/injection, schedule: Q04DX003 (sc), vehicle: saline
[10] = dose: 50.0 mg/kg/injection, schedule: Q04DX003 (sc), vehicle: saline

O=C1c2cccc3cc([N+](=O)[O-])cc(c23)C(=O)N1CCN1CCCC1
T/C (dose: 18.0 mg/kg/injection, schedule: Q04DX003 (sc), vehicle: saline with Tween-80): 120 % of control | T/C (dose: 36.0 mg/kg/injection, schedule: Q04DX003 (sc), vehicle: saline with Tween-80): 96 % of control | T/C (dose: 72.0 mg/kg/injection, schedule: Q04DX003 (sc), vehicle: saline with Tween-80): 85 % of control

O=C(NO)c1ccc(O)c(O)c1
T/C (dose: 200.0 mg/kg/injection, schedule: Q04DX003 (sc), vehicle: other): 26 % of control | T/C (dose: 200.0 mg/kg/injection, schedule: Q04DX003 (sc), vehicle: water): 104 % of control | T/C (dose: 400.0 mg/kg/injection, schedule: Q04DX003 (sc), vehicle: other): 60 % of control | T/C (dose: 400.0 mg/kg/injection, schedule: Q04DX003 (sc), vehicle: water): 87 % of control | T/C (dose: 800.0 mg/kg/injection, schedule: Q04DX003 (sc), vehicle: other): 18 % of control | T/C (dose: 800.0 mg/kg/injection, schedule: Q04DX003 (sc), vehicle: water): 78 % of control | T/C (dose: 1200.0 mg/kg/injection, schedule: Q04DX003 (sc), vehicle: distilled water + Tween-80): 77 % of control

O=[N+]([O-])c1ccc([I+]c2ccccc2)cc1
T/C (dose: 75.0 mg/kg/injection, schedule: Q04DX003 (ip), vehicle: Klucel (hydroxypropylcellulose) (HPC)): 92 % of control

C=C(C)C(=O)OC1C/C(CO)=C\C(O)C/C(C)=C/C2OC(=O)C(=C)C21 (configuration not stated)
T/C (dose: 20.0 mg/kg/injection, schedule: Q04DX003 (sc), vehicle: saline + alcohol): 55 % of control | T/C (dose: 40.0 mg/kg/injection, schedule: Q04DX003 (sc), vehicle: saline + alcohol): 106 % of control | T/C (dose: 80.0 mg/kg/injection, schedule: Q04DX003 (sc), vehicle: saline + alcohol): 66 % of control

CCOC(=O)c1[nH]c2cccc3c2c1CC(Br)C3=O (configuration not stated)
T/C [1]: 86 % of control | T/C [2]: 100 % of control | T/C [3]: 73 % of control | T/C [4]: 94 % of control

C[C@]12CCC(=O)C(O)=C1CC[C@@H]1[C@@H]2CC[C@]2(C)C(=O)CC[C@@H]12
T/C (dose: 35.0 mg/kg/injection, schedule: Q01DX010 (sc), vehicle: Klucel (hydroxypropylcellulose) (HPC)): 223 % of control | T/C (dose: 70.0 mg/kg/injection, schedule: Q01DX010 (sc), vehicle: Klucel (hydroxypropylcellulose) (HPC)): 112 % of control | T/C (dose: 280.0 mg/kg/injection, schedule: Q01DX010 (sc), vehicle: Klucel (hydroxypropylcellulose) (HPC)): 88 % of control

CC(=O)OCC1OC(n2ccc(N)nc2=O)C(OC(C)=O)C1OC(C)=O (configuration not stated)
T/C (dose: 150.0 mg/kg/injection, schedule: Q04DX003 (sc), vehicle: suspension in saline): 89 % of control | T/C (dose: 300.0 mg/kg/injection, schedule: Q04DX003 (sc), vehicle: saline): 107 % of control | T/C (dose: 600.0 mg/kg/injection, schedule: Q04DX003 (sc), vehicle: saline): 82 % of control | T/C (dose: 1200.0 mg/kg/injection, schedule: Q04DX003 (sc), vehicle: saline): 84 % of control | T/C (dose: 2400.0 mg/kg/injection, schedule: Q04DX003 (sc), vehicle: suspension in saline): 14 % of control

Cc1c2oc3c(C)ccc(C(=O)N[C@@H]4C(=O)N[C@H](C(C)C)C(=O)N5CCC[C@H]5C(=O)N(C)CC(=O)N(C)[C@@H](C(C)C)C(=O)O[C@H]4C)c3nc-2c(C(=O)N[C@@H]2C(=O)N[C@H](C(C)C)C(=O)N3CCC[C@H]3C(=O)N(C)CC(=O)N(C)[C@@H](C(C)C)C(=O)O[C@H]2C)c(N)c1=O (I: [aThr][dV]P[Sar][NMeV] / II: [aThr][dV]P[Sar][NMeV]; ester I:1-I:C, II:1-II:C; linker I:N-II:N via Actinocin(9to1))
T/C (dose: 0.25 mg/kg/injection, schedule: Q04DX003 (sc), vehicle: saline): 34 % of control | T/C (dose: 0.5 mg/kg/injection, schedule: Q04DX003 (sc), vehicle: saline): 11 % of control | T/C (dose: 1.0 mg/kg/injection, schedule: Q04DX003 (sc), vehicle: saline): -46 % of control | T/C (dose: 50.0 micrograms/kg/injection, schedule: Q01DX010 (sc), vehicle: saline): 76 % of control | T/C (dose: 100.0 micrograms/kg/injection, schedule: Q01DX010 (sc), vehicle: saline): 23 % of control and 28 % of control and 33 % of control | T/C (dose: 200.0 micrograms/kg/injection, schedule: Q01DX010 (sc), vehicle: saline): 1 % of control and 18 % of control

O=NN(CCCl)C(=O)Oc1cc(Cl)c(Cl)cc1Cl
T/C [5]: 64 % of control | T/C [6]: 35 % of control | T/C [7]: 21 % of control | T/C (dose: 2400.0 mg/kg/injection, schedule: Q04DX003 (sc), vehicle: Klucel (hydroxypropylcellulose) (HPC)): 33 % of control

ClCCCN1CCCCC1CCl (configuration not stated)
T/C [8]: 51 % of control | T/C [9]: 1 % of control | T/C [10]: 3 % of control

C[CH2][Ge]1([CH2]C)[CH2]CC2(CCN(CCCN(C)C)C2)C[CH2]1
T/C [8]: 72 % of control | T/C [9]: 92 % of control | T/C [10]: 72 % of control | T/C (dose: 100.0 mg/kg/injection, schedule: Q04DX003 (sc), vehicle: saline): 85 % of control

CC(C)(C)c1ccc(CN2CCN(C(c3ccccc3)c3ccc(Cl)cc3)CC2)cc1 (configuration not stated)
T/C (dose: 4.5 mg/kg/injection, schedule: Q01DX010 (sc), vehicle: Klucel (hydroxypropylcellulose) (HPC)): 96 % of control | T/C (dose: 9.0 mg/kg/injection, schedule: Q01DX010 (sc), vehicle: Klucel (hydroxypropylcellulose) (HPC)): 101 % of control | T/C (dose: 18.0 mg/kg/injection, schedule: Q01DX010 (sc), vehicle: Klucel (hydroxypropylcellulose) (HPC)): 117 % of control | T/C (dose: 36.0 mg/kg/injection, schedule: Q01DX010 (sc), vehicle: Klucel (hydroxypropylcellulose) (HPC)): 101 % of control | T/C [5]: 102 % of control | T/C [6]: 106 % of control | T/C [7]: 100 % of control

COC(=O)Nc1ccc(Cc2ccc(NC(=O)OC)cc2)cc1
T/C [1]: 87 % of control | T/C [2]: 119 % of control | T/C [3]: 65 % of control | T/C [4]: 48 % of control

COc1c(CNC(=O)CCl)cc2[nH]c(C)cc2c1CNC(=O)CCl
T/C (dose: 250.0 mg/kg/injection, schedule: Q04DX003 (sc), vehicle: Klucel (hydroxypropylcellulose) (HPC)): 100 % of control | T/C (dose: 1000.0 mg/kg/injection, schedule: Q04DX003 (sc), vehicle: Klucel (hydroxypropylcellulose) (HPC)): 55 % of control | T/C (dose: 2000.0 mg/kg/injection, schedule: Q04DX003 (sc), vehicle: Klucel (hydroxypropylcellulose) (HPC)): 58 % of control

O=C(O)C1(NO)CCCCC1
T/C (dose: 200.0 mg/kg/injection, schedule: Q04DX003 (sc), vehicle: Klucel (hydroxypropylcellulose) (HPC)): 110 % of control | T/C (dose: 400.0 mg/kg/injection, schedule: Q04DX003 (sc), vehicle: Klucel (hydroxypropylcellulose) (HPC)): 100 % of control | T/C (dose: 800.0 mg/kg/injection, schedule: Q04DX003 (sc), vehicle: Klucel (hydroxypropylcellulose) (HPC)): 123 % of control | T/C (dose: 1600.0 mg/kg/injection, schedule: Q04DX003 (sc), vehicle: Klucel (hydroxypropylcellulose) (HPC)): 64 % of control

C[n+]1c(-c2cccc3ccccc23)c2cc(N)ccc2c2ccccc21
T/C (dose: 12.0 mg/kg/injection, schedule: Q04DX003 (sc), vehicle: saline): 103 % of control | T/C (dose: 48.0 mg/kg/injection, schedule: Q04DX003 (sc), vehicle: saline): 92 % of control

COc1ccc(C(=O)c2no[n+]([O-])c2C(=O)c2ccc(OC)cc2)cc1
T/C [1]: 121 % of control | T/C [2]: 91 % of control | T/C [3]: 66 % of control | T/C [4]: 88 % of control

CC1CN=C(c2ccc(NC(=O)c3ccc(C(=O)Nc4ccc(C5=NCC(C)N5)cc4)cc3)cc2)N1 (configuration not stated)
T/C (dose: 100.0 mg/kg/injection, schedule: Q01DX010 (sc), vehicle: Klucel (hydroxypropylcellulose) (HPC)): 96 % of control | T/C (dose: 200.0 mg/kg/injection, schedule: Q01DX010 (sc), vehicle: Klucel (hydroxypropylcellulose) (HPC)): 107 % of control | T/C (dose: 400.0 mg/kg/injection, schedule: Q01DX010 (sc), vehicle: Klucel (hydroxypropylcellulose) (HPC)): 110 % of control | T/C (dose: 800.0 mg/kg/injection, schedule: Q01DX010 (sc), vehicle: Klucel (hydroxypropylcellulose) (HPC)): 77 % of control

CC[n+]1c(-c2ccccc2)c2cc(N)ccc2c2ccc(N)cc21
T/C (dose: 15.0 mg/kg/injection, schedule: Q04DX003 (sc), vehicle: saline): 119 % of control | T/C (dose: 30.0 mg/kg/injection, schedule: Q04DX003 (sc), vehicle: saline): 110 % of control | T/C (dose: 60.0 mg/kg/injection, schedule: Q04DX003 (sc), vehicle: saline): 83 % of control

COc1cccc2c1C(=O)c1c(O)c3c(c(O)c1C2=O)C[C@@](O)(/C(C)=N/NC(=O)c1ccc(Cl)cc1)C[C@@H]3OC1CC(N)C(O)C(C)O1 (some centres not stated)
T/C (dose: 1.0 mg/kg/injection, schedule: Q01DX010 (sc), vehicle: water): 58 % of control | T/C (dose: 4.0 mg/kg/injection, schedule: Q01DX010 (sc), vehicle: water): 84 % of control and 109 % of control | T/C (dose: 16.0 mg/kg/injection, schedule: Q01DX010 (sc), vehicle: water): 49 % of control
